Measured values published in patent US20090239757A1, “Control Sequences Responding to AMP and Uses Thereof” (priority 2004, published 2009).
Residues, ends and D or L forms follow the SMILES beside them.

Test system: E. coli TOP10
Assay: microarray transcription profile of E. coli TOP10 expressing Novispirin G10 (pDRS5-novispirin, arabinose induced) relative to control strain pBAD gIII A
Format: cell-based, Escherichia coli
Description: In order to obtain a transcriptional profile of E. coli expressing Novispirin G10, 2×10 mL sterile LB media (10 g/L Bactotryptone, 5 g/L Yeast extract, and 10 g/L NaCl) containing 100 mg/L ampicillin was inoculated with E. coli TOP10 harbouring pDRS5-novispirin and pBAD gIII A, respectively. These cultures were grown overnight at 37° C. at 180 rpm. The overnight cultures were diluted 1/100 into fresh sterile RM media (2% Casamino Acids, 0.2% glycerol, 1 mM MgCl2, 0.1 mM thiamine, 6 g/L Na2HPO4, 3 g/L KH2PO4.2H2O, 0.5 g/L NaCl, 0.1 g/L NH4Cl at pH 7.4) supplemented with 100 mg/L ampicillin and 0.1% arabinose. 100 mL of each culture was grown at 37° C., 240 rpm for 4.5 hours before being harvested by poured into centrifugation tubes containing 10 mL pre-frozen milliQ water and immediate centrifugation at 4200 g for 15 minutes at 4° C. Immediately hereafter, the supernatant was decanted and the cell […] was frozen at −20° C. for storage until RNA preparation was initiated.
Total RNA was isolated from the two E. coli (expressing either Novispirin G10 or a control peptide) cultures by use of the High Pure RNA Isolation kit (Roche, cat #1 828 665) according to the manufacturers instructions. Residual DNA was removed on-column with RNase-free DNase. Labelled samples were prepared from 30 μg of total bacterial RNA. Fluorescent first strand cDNA was prepared by random primed reverse transcription (Superscript II; Life Technologies) by use of random hexamers for cDNA synthesis. 2 μl (20 μg) of random primer was mixed with 15 μl (30 μg) of total RNA, incubated for 5 min at 70° C., and cooled on ice. To each sample was added 5× first strand buffer (6 μl), 0.1 M DTT (3 μl), dNTP mix (5 mM dATP, dGTP and dTTP and 2 mM dCTP) (1 μl), RNaseOut (1 μl), Superscript II reverse transcriptase (2 μl) and Cy-dCTP (3 μl). Reverse transcription was carried out at 42° C. for 1 hr. RNA was removed by addition of 10 μl NaOH (1 M) and incubation at 65° C. for 10 min. The samples were neutralised by addition of 10 μl HCl (1 M). Cy3 and Cy5 cDNA samples were mixed and immediately purified with a GFX PCR DNA and Gel Band Purification Kit (Amersham Biosciences).
Slides were pre-hybridised at 42° C. for 45 min in a solution containing 4×SSC+0.5% SDS+1% BSA and dried by centrifugation. Hybridizations were in a volume of 25 μl under a supported cover slip at 42° C. for 16-18 h at high humidity. The hybridisation mixture was labelled cDNA in a formamide-based hybridisation buffer (MWG—supplied with the pan-arrays). Cover slip and supports were gently removed (2×SSC in a wash tray) and arrays were washed by immersion into 2×SSC+0.1% SDS for 5 min, 1×SSC+0.1% SDS for 5 min, 0.5×SSC for 5 min and 1× millipore water for 10 sec and dried by centrifugation. Slides were scanned on a GMS 418 scanner to detect Cy3 and Cy5 fluorescence. Data analysis was carried out using ImaGene 5.0 and GeneSight 3.5 from BioDiscovery (www.biodiscovery.com). Two biological replicate experiments with four replicate hybridisations in each experiment were carried out for generation of data.
Pan E. coli K12 Arrays from MWG Biotech were used in this study (lot No.: 020206). The 4239 E. coli K12 specific oligonucleotide probes present on this glass-based DNA chip represent the complete Escherichia coli (K12) genome
Gene expression data was analyzed using the GeneSight 4.1.5 software from BioDiscovery. Data was prepared using local background correction, removal of flagged spots (contaminated background or signal), floor value raising data to a minimum value of 20, calculation of ratio, log(2) transformation of ratios, print-tip lowess normalization, and finally combination of replicate spot.

## CC[C@H](C)[C@H](NC(=O)CNC(=O)[C@H](CCCCN)NC(=O)[C@H](CCCNC(=N)N)NC(=O)[C@@H](NC(=O)[C@@H](NC(=O)[C@H](CCCNC(=N)N)NC(=O)[C@H](CCCNC(=N)N)NC(=O)[C@H](CC(C)C)NC(=O)[C@H](CC(N)=O)NC(=O)[C@@H](N)CCCCN)[C@@H](C)CC)[C@@H](C)CC)C(=O)N[C@@H](Cc1c[nH]cn1)C(=O)N[C@H](C(=O)N[C@H](C(=O)N[C@@H](CCCCN)C(=O)N[C@@H](CCCCN)C(=O)N[C@@H](Cc1ccc(O)cc1)C(=O)NCC(=O)O)[C@@H](C)CC)[C@@H](C)CC [Novispirin G10] (H-KNLRRIIRKGIHIIKKYG-OH; N-terminus assumed)
  ratio, gene gcvT: −4.8
  ratio, gene glk: 3.4
  ratio, gene glpA: −2.7
  ratio, gene glpA-r: −2.9
  ratio, gene glpB: −7.8
  ratio, gene glpC: −5.9
  ratio, gene glpT: −3.6
  ratio, gene gltB: −2.7
  ratio, gene gntT: −4.3
  ratio, gene grpE: −3.0
  ratio, gene hdeA: 7.7
  ratio, gene hdeB: 7.9
  ratio, gene hdeD: 4.3
  ratio, gene hemL: 8.3
  ratio, gene hisC: −4.5
  ratio, gene hscA: 3.2
  ratio, gene hslU: −3.2
  ratio, gene hslV: −3.0
  ratio, gene hybB: −2.9
  ratio, gene hyfD: −2.9
  ratio, gene hypB: −3.4
  ratio, gene hypC: −3.0
  ratio, gene hypE: −3.9
  ratio, gene ibpB: −6.5
  ratio, gene katE: 9.9
  ratio, gene lacY: −2.7
  ratio, gene lacZ: −9.1
  ratio, gene lon: −2.9
  ratio, gene malE: 4.6
  ratio, gene malM: 4.0
  ratio, gene mcrA: 3.9
  ratio, gene menA: −2.9
  ratio, gene menB: 2.9
  ratio, gene metE: 4.0
  ratio, gene mfd-r: −4.6
  ratio, gene mglC: −2.6
  ratio, gene mgtA: 7.5
  ratio, gene minD: −2.9
  ratio, gene mlc: −2.6
  ratio, gene mopA: −3.6
  ratio, gene mopB: −9.1
  ratio, gene mrr: 2.9
  ratio, gene nagA: 3.7
  ratio, gene nagB: 8.8
  ratio, gene napD: −3.5
  ratio, gene napF: −3.2
  ratio, gene napH: −7.9
  ratio, gene narU: 15.1
  ratio, gene narX: −4.0
  ratio, gene narY: 11.0
  ratio, gene narZ: 4.9
  ratio, gene ndh: 3.1
  ratio, gene nirB: −2.9
  ratio, gene nirC: −3.0
  ratio, gene nirD: −5.7
  ratio, gene nmpC: −6.6
  ratio, gene nrfA: −12.7
  ratio, gene ompF: −4.5
  ratio, gene ompX: 4.7
  ratio, gene osmC: 7.2
  ratio, gene osmE: 11.7
  ratio, gene osmY: 6.4
  ratio, gene otsA: 5.2
  ratio, gene otsB: 5.6
  ratio, gene pepB: 4.7
  ratio, gene pheP: 3.4
  ratio, gene phnE: 4.6
  ratio, gene phoP: 2.8
  ratio, gene phoQ: 3.7
  ratio, gene potG: 4.0
  ratio, gene poxB: 3.3
  ratio, gene pphA: 5.2
  ratio, gene proW: 7.9
  ratio, gene pspA: 6.7
  ratio, gene pspB: 6.9
  ratio, gene pspC: 15.8
  ratio, gene pspD: 13.5
  ratio, gene pspE: 9.4
  ratio, gene pssA: −2.8
  ratio, gene ptsP-r: −3.9
  ratio, gene pyrE: 4.2
  ratio, gene queA: −2.9
  ratio, gene rcsA: −2.8
  ratio, gene rfaJ: −2.6
  ratio, gene rfaP: −3.0
  ratio, gene rmf-r: 3.9
  ratio, gene rnt: 3.9
  ratio, gene rpiR: −3.1
  ratio, gene rpoB-r: 2.8
  ratio, gene rpsV: 5.2
  ratio, gene rstB: 3.6
  ratio, gene sfcA: 5.8
  ratio, gene sfmC: 11.4
  ratio, gene sfsA: 6.4
  ratio, gene slp: 3.6
  ratio, gene smp: −3.2
  ratio, gene sohA: 4.3
  ratio, gene speG: 3.8
  ratio, gene srlA: −2.7
  ratio, gene srlR: −2.6
  ratio, gene talA: 11.7
  ratio, gene tdcB: −2.7
  ratio, gene tdcC: −5.1
  ratio, gene thrB: 3.3
  ratio, gene tktB: 26.5
  ratio, gene tolC: 3.9
